Holding throughout (assay): NCI anticancer screen, dose series, 48 h
Experiment [1] deals with A549 NSCLC.
In experiment [2] the test system is HCT-116 colon.
The subject of experiment [3] is HL-60(TB) leukemia.
In experiment [4] the test system is HS 578T breast.
The subject of experiment [5] is HT29 colon.
Experiment [6] deals with MDA-MB-435.
Experiment [7] has as its system OVCAR-5 ovarian.
Experiment [8] relates to SF-268 CNS.

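Step 1: Grow cells in 96-well plates. Step 2: Expose to compound for 48 hours at 5 concentrations. Step 3: Interpolate endpoints linearly; if unreached, use highest concentration. GI50 = concentration required for 50% inhibition of growth. TGI: total growth inhibition.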 Where only a bound is given, the exact number is not on record here.

Take `CCOc1cccc(-c2nc(N)nc(Nc3ccccc3SSc3ccccc3Nc3nc(N)nc(-c4cccc(OCC)c4)n3)n2)c1`: the GI50 in experiment [1] is 2.02 µM; in experiment [2], 3.95 µM; in experiment [3] it was 2.14 µM; in experiment [4] it was 6.37 µM; in experiment [5], 55.8 µM; in experiment [6], 8.1 µM. In addition, the results for the GI50 in experiment [7] and in experiment [8] were 3.42 µM and 3.84 µM, respectively. Besides, the TGI in experiment [1] was 4.78 µM; in experiment [2] it was > 100 µM; in experiment [3], 6.09 µM; in experiment [4] it was > 100 µM; in experiment [5], > 100 µM; in experiment [6], > 100 µM. Further, the values for the TGI in experiment [7] and in experiment [8] were 44.1 µM and > 100 µM, respectively.
Turning to `COc1ccc(/C=C2\C=C(c3ccccc3)N(CCc3ccccc3)C2=O)cc1OC`, the GI50 was 5.06 µM in experiment [1]; 3.09 µM in experiment [2]; 11.7 µM in experiment [3]; 3.66 µM in experiment [4]; 8.92 µM in experiment [5]; 4.78 µM in experiment [6]. Further, the GI50 is 6.37 µM in experiment [7] and 8.18 µM in experiment [8]. The TGI in experiment [1] was 17.7 µM; in experiment [2] it was 11.6 µM; in experiment [3], 68.6 µM; in experiment [4], 23.4 µM; in experiment [5], 48.9 µM; in experiment [6] it was > 100 µM. Moreover, the TGI in experiment [7] was 73.1 µM; in experiment [8], 26.5 µM.
With `CC(=O)N1N=C2/C(=C/c3ccc(Cl)cc3)CC(C)CC2C1c1ccc(Cl)cc1` (centres undefined), the GI50 is 20.6 µM in experiment [1]; 12.6 µM in experiment [2]; 13.5 µM in experiment [3]; 20.6 µM in experiment [4]; 21.7 µM in experiment [5]; 30.9 µM in experiment [6]. Besides, the figures for the GI50 in experiment [7] and in experiment [8] were 43.4 µM and 21.5 µM, respectively. The TGI in experiment [1] is > 100 µM; in experiment [2], 25.2 µM; in experiment [3], 59.5 µM; in experiment [4], 72.1 µM; in experiment [5] it was 91.5 µM; in experiment [6], > 100 µM. Also, the results for the TGI in experiment [7] and in experiment [8] were > 100 µM and 73.4 µM, respectively.
`CN(Cc1cc(Cl)cc(Cl)c1O)Cc1c(O)ccc2ccccc12`: the TGI in experiment [1] is 62.3 µM; in experiment [2], 58.7 µM; in experiment [3] it was 57.4 µM; in experiment [4], 44.4 µM; in experiment [5], > 100 µM; in experiment [6], 41.4 µM. Further, the TGI was 52.5 µM in experiment [7] and 28.2 µM in experiment [8].
For `Clc1ccc(-c2cc(-c3ccccc3)nc(NCCNc3ccnc4cc(Cl)ccc34)n2)cc1`, the GI50 was 1.71 µM in experiment [1]; 1.65 µM in experiment [2]; 1.85 µM in experiment [3]; 1.88 µM in experiment [4]; 1.67 µM in experiment [5]; 1.77 µM in experiment [6]. For the same compound, the GI50 in experiment [7] was 1.67 µM; in experiment [8], 1.81 µM. Also, the TGI in experiment [1] turned out to be 3.45 µM; in experiment [2], 3.41 µM; in experiment [3] it was 3.76 µM; in experiment [4], 4.19 µM; in experiment [5], 3.26 µM; in experiment [6], 3.27 µM. The results for the TGI in experiment [7] and in experiment [8] were 3.06 µM and 3.8 µM, respectively.
For `CS(=O)(=O)CC(=O)c1ccccc1`, the TGI in experiment [1], in experiment [2], in experiment [3], in experiment [4], in experiment [5] and in experiment [6] was > 100 µM in each case. In addition, the TGI in experiment [7] and in experiment [8] was > 100 µM each time.
In the case of `Oc1cc2ccccc2c(-c2c(O)c(O)cc3ccccc23)c1O`, the GI50 was 0.41 µM in experiment [1]; 0.427 µM in experiment [2]; 1.59 µM in experiment [3]; 2.9 µM in experiment [4]; 3.95 µM in experiment [5]; 1.17 µM in experiment [6]. Also, the GI50 in experiment [7] was 4.54 µM; in experiment [8], 1.88 µM. Further, the TGI in experiment [1] was 19.3 µM; in experiment [2] it was 11.9 µM; in experiment [3] it was > 20.6 µM; in experiment [4], > 44.1 µM; in experiment [5], 25.3 µM; in experiment [6] it was 12.4 µM. For the same compound, the values for the TGI in experiment [7] and in experiment [8] were 24.1 µM and 23.3 µM, respectively.
`Cn1cc(C2=C(c3cn(C)c4ccccc34)C(=O)NC2=O)c2ccccc21`: the GI50 was 1.97 µM in experiment [1]; 1.17 µM in experiment [2]; 0.747 µM in experiment [3]; 0.7 µM in experiment [4]; 0.775 µM in experiment [5]; 0.095 µM in experiment [6]. Further, the GI50 was > 25 µM in experiment [7] and 3.1 µM in experiment [8]. In addition, the TGI in experiment [1] was > 25 µM; in experiment [2], > 25 µM; in experiment [3], 5.1 µM; in experiment [4], > 19.9 µM; in experiment [5], > 25 µM; in experiment [6] it was > 6.61 µM. Moreover, the TGI in experiment [7] and in experiment [8] was > 25 µM throughout.
On to `O=C(c1ccco1)c1c(C(F)(F)F)n([O-])c2ccc(Cl)cc2[n+]1=O`, for which the GI50 in experiment [1] is 0.615 µM; in experiment [2] it was 0.0595 µM; in experiment [3], 0.346 µM; in experiment [4] it was 1.49 µM; in experiment [5], 0.359 µM; in experiment [6], 1.9 µM. Further, the GI50 in experiment [7] is 1.47 µM; in experiment [8], 1.61 µM. Also, the TGI in experiment [1] is 2.44 µM; in experiment [2], 2.84 µM; in experiment [3] it was 6.33 µM; in experiment [4], 4.37 µM; in experiment [5], > 100 µM; in experiment [6] it was 7.66 µM. Further, the TGI worked out at 2.86 µM in experiment [7] and 3.18 µM in experiment [8].
As to `O=c1oc2ccc(Br)cc2c(=O)n1-c1ccc(I)cc1F`, the GI50 in experiment [1] was 0.717 µM; in experiment [2] it was 0.396 µM; in experiment [3], 0.375 µM; in experiment [4], 0.287 µM; in experiment [5] it was 3.31 µM; in experiment [6] it was 0.409 µM. The GI50 in experiment [7] is 3.59 µM; in experiment [8], 0.383 µM. Further, the TGI in experiment [1] came to 22.9 µM; in experiment [2] it was 1.53 µM; in experiment [3], 1.99 µM; in experiment [4], 1.36 µM; in experiment [5], 12.5 µM; in experiment [6], 3.82 µM. The TGI in experiment [7] was > 100 µM; in experiment [8], 4.82 µM.
